For two compounds, CC50, MIC and IC50 results are on record in ChEMBL document CHEMBL4433208, “N-Nitrosulfonamides as Carbonic Anhydrase Inhibitors: A Promising Chemotype for Targeting Chagas Disease and Leishmaniasis” (ACS Med Chem Lett, 2019).

Values after ≈ are worked out from the molar mass of the structure shown.

Data set [1] in a line: in vitro. The note with it: mouse, RAW264.7 cells.
Description: Cytotoxicity against mouse RAW264.7 cells assessed as reduction in cell viability after 48 hrs by MTT assay
For data set [2], the system named is Leishmania amazonensis. The data set is described as follows: microbe, parasite or virus in culture. The following applies: IFLA/BR/1967/PH8, 48 h. The format is functional.
Description: Antileishmanial activity against Leishmania amazonensis IFLA/BR/1967/PH8 promastigotes after 48 hrs by resazurin dye based assay
Data set [3] has as its system Leishmania infantum. The data set is described as follows: microbe, parasite or virus in culture. It counts as functional, organism-based. The following applies: MHOM/BR/1974/PP75, 48 h.
Description: Antileishmanial activity against Leishmania infantum MHOM/BR/1974/PP75 promastigotes assessed as reduction in parasite viability after 48 hrs by resazurin dye based assay
Data set [4] has as its system Leishmania infantum. As to the kind of experiment: microbe, parasite or virus in culture. The note with it: MHOM/BR/1974/PP75, 48 h. It counts as functional.
Description: Antileishmanial activity against Leishmania infantum MHOM/BR/1974/PP75 promastigotes after 48 hrs by resazurin dye based assay
Data set [5] concerns Leishmania amazonensis. The data set is described as follows: microbe, parasite or virus in culture. It counts as functional, organism-based. The following applies: IFLA/BR/1967/PH8, 48 h.
Description: Antileishmanial activity against Leishmania amazonensis IFLA/BR/1967/PH8 promastigotes assessed as reduction in parasite viability IFLA/BR/1967/PH8 after 48 hrs by resazurin dye based assay
Data set [6] concerns Trypanosoma cruzi. As to the kind of experiment: microbe, parasite or virus in culture. It counts as functional. The following applies: Y.
Description: Antitrypanosomal activity against Trypanosoma cruzi Y epimastigotes resazurin dye based assay
A short description of data set [7]: in vitro. The following applies: chlorocebus sabaeus, Vero cells.
Description: Cytotoxicity against African green monkey Vero cells 72 hrs by CellTiter-Glo assay
The test system of data set [8] is Trypanosoma cruzi. The data set is described as follows: microbe, parasite or virus in culture. The format is functional. The note with it: Dm28c, 48 h.
Description: Antitrypanosomal activity against Trypanosoma cruzi Dm28c epimastigotes after 48 hrs by resazurin dye based assay

Usually CC50 stands for the concentration that lowers cell viability or growth by half. Read a high CC50 as better tolerance by the cells. In general, IC50 refers to the concentration that gives 50% inhibition. Read a low IC50 as greater potency in that assay. Take `C[C@@H]1[C@H](O)[C@@H](C)/C=C/C=C/C=C/C=C/C=C/C=C/C=C/[C@H](O[C@@H]2O[C@H](C)[C@@H](O)[C@H](N)[C@@H]2O)C[C@@H]2O[C@](O)(C[C@@H](O)C[C@@H](O)[C@H](O)CC[C@@H](O)C[C@@H](O)CC(=O)O[C@H]1C)C[C@H](O)[C@H]2C(=O)O` [AMPHOTERICIN B]: in data set [1], the CC50 at 48 h came out at 1000 nM. The MIC in data set [2] and in data set [4] was 8 µM (≈ 7.39 µg/mL) throughout. Further, the figures for the IC50 in data set [3] and in data set [5] were 1770 nM and 1650 nM, respectively.

In turn, `O=C(Cn1ccnc1[N+](=O)[O-])NCc1ccccc1` [BENZNIDAZOLE] returned a CC50 at 48 h in data set [1] of 138000 nM. The MIC in data set [6] and in data set [8] was 32 µM (≈ 8.33 µg/mL) in each case. The compound also registered a CC50 at 72 h in data set [7] above 500000 nM.
